Results from paper PMC8865417, “Receptor Interaction Profiles of 4-Alkoxy-3,5-Dimethoxy-Phenethylamines (Mescaline Derivatives) and Related Amphetamines” (Frontiers in Pharmacology, 2022).

How the values were obtained:
h5-HT1A receptor = molecular target: T1, h5-HT1A receptor (Homo sapiens, UniProt P08908); assay: Radioligand binding at h5-HT1A receptor ([3H]8-OH-DPAT)
T1 construct: expressed in transfected cells; host or cells: HEK 293 cells (membrane preparations)
T1 sequence (P08908 1-422): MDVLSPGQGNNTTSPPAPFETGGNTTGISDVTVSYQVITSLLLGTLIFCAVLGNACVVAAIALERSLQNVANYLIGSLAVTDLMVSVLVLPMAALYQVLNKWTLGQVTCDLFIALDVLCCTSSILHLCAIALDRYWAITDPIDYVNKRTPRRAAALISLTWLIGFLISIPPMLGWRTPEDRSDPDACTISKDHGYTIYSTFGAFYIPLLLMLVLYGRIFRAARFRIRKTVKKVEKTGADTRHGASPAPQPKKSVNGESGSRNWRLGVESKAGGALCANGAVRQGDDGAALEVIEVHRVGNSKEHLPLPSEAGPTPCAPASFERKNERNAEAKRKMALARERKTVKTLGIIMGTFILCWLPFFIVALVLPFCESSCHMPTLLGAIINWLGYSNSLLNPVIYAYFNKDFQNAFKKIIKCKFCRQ

h5-HT2A receptor = molecular target: T2, h5-HT2A receptor (Homo sapiens, UniProt P28223); assay: Radioligand binding at h5-HT2A receptor ([3H]ketanserin); conditions: for Selectivity 5-HT2A vs. 5-HT1A / Selectivity 5-HT2A vs. 5-HT2C: binding ratio; for Ki: h5-HT2A Receptor binding Ki ± SD, [3H]ketanserin, mean ± SD
T2 construct: expressed in transfected cells; host or cells: HEK 293 cells (membrane preparations)

h5-HT2C receptor = molecular target: T3, h5-HT2C receptor (Homo sapiens, UniProt P28335); assay: biochemical; type: binding; conditions: for Ki: [3H]mesulergine, mean ± SD, read-out: h5-HT2C Receptor binding Ki ± SD
T3 construct: expressed in transfected cells; host or cells: HEK 293 cells (membrane preparations)
T3 sequence (P28335 33-458): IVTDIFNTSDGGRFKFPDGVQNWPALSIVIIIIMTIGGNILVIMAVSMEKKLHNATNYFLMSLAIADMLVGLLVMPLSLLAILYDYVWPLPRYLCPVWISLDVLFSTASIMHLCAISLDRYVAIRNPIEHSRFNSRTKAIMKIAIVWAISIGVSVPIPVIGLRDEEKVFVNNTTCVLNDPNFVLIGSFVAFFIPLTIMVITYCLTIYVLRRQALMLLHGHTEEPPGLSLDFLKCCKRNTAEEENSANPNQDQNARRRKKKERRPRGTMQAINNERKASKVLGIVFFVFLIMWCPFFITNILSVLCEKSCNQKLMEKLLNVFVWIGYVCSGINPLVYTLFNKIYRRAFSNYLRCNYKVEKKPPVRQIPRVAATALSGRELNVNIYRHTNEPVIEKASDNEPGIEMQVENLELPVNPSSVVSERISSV

mouse TAAR1 = molecular target: T4, mouse TAAR1 (Mus musculus, UniProt Q923Y8); assay: Radioligand binding at mouse TAAR1 ([3H]RO5166017)
T4 construct: expressed in transfected cells; host or cells: HEK 293 cells (membrane preparations)

hα1A adrenergic receptor = molecular target: T5, hα1A adrenergic receptor (Homo sapiens, UniProt P35348); assay: Radioligand binding at hα1A adrenergic receptor ([3H]prazosin); conditions: mean ± SD
T5 construct: expressed in transfected cells; host or cells: Chinese hamster ovary cells (membrane preparations)
T5 sequence (P35348 1-466): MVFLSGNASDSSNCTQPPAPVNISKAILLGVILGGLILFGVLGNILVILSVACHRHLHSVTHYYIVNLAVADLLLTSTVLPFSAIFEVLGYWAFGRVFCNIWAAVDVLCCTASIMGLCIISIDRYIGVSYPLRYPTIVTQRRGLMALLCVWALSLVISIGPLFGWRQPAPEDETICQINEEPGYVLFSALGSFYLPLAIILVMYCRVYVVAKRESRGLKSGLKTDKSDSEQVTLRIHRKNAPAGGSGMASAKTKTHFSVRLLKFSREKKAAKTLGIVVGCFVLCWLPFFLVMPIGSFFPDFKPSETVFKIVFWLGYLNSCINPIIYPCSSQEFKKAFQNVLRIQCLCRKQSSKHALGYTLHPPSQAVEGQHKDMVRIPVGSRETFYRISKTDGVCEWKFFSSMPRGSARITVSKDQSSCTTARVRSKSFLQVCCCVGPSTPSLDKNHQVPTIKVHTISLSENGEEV

hα2A adrenergic receptor = molecular target: T6, hα2A adrenergic receptor (Homo sapiens, UniProt P08913); assay: Radioligand binding at hα2A adrenergic receptor ([3H]rauwolscine)
T6 construct: expressed in transfected cells; host or cells: Chinese hamster lung cells (membrane preparations)
T6 sequence (P08913 1-465): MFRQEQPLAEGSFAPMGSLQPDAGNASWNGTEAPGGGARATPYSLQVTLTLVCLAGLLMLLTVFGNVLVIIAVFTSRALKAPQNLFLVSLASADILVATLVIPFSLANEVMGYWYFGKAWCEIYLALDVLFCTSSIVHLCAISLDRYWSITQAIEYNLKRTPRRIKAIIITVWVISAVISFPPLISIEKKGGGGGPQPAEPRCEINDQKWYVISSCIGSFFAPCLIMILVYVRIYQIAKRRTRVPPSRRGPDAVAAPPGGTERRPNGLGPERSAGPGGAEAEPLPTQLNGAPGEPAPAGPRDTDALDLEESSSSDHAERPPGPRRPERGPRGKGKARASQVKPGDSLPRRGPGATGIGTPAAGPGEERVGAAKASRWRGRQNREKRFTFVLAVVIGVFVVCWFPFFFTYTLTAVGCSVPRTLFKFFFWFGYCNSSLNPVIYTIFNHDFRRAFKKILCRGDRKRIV

[1] = molecular target: T7, dopaminergic hD2 receptor (Homo sapiens, UniProt P14416); assay: Radioligand binding at dopaminergic hD2 receptor ([3H]spiperone)
T7 construct: expressed in transfected cells; host or cells: HEK 293 cells (membrane preparations)

hNET = molecular target: T8, hNET (Homo sapiens, UniProt P23975); assay: Radioligand binding at hNET (N-methyl-[3H]nisoxetine)
T8 construct: expressed in transfected cells; host or cells: HEK 293 cells (membrane preparations)

hSERT = molecular target: T9, hSERT (Homo sapiens, UniProt P31645); assay: Radioligand binding at hSERT ([3H]citalopram)
T9 construct: expressed in transfected cells; host or cells: HEK 293 cells (membrane preparations)
T9 sequence (P31645 whole entry): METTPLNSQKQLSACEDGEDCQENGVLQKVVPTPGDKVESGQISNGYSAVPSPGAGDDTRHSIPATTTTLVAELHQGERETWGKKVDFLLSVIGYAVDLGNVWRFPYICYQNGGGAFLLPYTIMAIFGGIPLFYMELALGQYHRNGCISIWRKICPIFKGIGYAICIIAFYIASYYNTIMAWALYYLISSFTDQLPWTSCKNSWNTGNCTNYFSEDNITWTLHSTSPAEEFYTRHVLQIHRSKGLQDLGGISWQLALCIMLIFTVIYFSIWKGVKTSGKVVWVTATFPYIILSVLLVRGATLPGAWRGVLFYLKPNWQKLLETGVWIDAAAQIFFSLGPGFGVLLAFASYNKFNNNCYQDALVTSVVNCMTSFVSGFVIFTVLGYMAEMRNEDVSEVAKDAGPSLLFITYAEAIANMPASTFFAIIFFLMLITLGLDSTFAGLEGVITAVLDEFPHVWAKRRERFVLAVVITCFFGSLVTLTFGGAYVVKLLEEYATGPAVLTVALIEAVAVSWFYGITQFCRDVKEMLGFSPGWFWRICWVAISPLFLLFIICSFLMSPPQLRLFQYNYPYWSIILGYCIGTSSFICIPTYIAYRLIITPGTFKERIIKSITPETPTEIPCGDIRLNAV

T7 sequence (P14416 whole entry): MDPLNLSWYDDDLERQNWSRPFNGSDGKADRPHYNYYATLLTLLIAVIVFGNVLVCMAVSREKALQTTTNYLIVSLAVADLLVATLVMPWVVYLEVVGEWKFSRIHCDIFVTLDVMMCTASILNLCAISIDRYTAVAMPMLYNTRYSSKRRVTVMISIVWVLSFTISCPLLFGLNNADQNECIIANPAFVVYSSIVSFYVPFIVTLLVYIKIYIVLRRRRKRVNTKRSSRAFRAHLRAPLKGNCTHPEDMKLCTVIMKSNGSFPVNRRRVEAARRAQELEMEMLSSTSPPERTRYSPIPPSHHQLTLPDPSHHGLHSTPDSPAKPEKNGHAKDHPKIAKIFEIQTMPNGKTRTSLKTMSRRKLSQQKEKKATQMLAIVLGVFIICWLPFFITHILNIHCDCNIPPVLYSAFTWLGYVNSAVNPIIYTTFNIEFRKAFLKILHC
T8 sequence (P23975 whole entry): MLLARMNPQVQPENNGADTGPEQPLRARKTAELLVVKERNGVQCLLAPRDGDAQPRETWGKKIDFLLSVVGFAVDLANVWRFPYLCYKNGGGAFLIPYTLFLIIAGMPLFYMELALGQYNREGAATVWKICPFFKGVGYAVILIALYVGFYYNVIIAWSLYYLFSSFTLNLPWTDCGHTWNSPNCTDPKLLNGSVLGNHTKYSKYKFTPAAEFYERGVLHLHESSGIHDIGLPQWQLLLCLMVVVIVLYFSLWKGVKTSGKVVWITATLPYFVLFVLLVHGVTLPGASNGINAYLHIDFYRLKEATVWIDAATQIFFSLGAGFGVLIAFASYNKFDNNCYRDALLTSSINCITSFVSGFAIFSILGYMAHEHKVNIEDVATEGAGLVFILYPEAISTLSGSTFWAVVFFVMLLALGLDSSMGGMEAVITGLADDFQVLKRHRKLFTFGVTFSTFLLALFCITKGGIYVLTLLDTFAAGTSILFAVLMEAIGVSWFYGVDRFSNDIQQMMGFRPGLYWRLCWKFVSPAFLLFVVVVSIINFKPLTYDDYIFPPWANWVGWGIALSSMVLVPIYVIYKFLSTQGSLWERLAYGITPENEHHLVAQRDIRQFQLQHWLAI
T2 sequence (P28223 whole entry): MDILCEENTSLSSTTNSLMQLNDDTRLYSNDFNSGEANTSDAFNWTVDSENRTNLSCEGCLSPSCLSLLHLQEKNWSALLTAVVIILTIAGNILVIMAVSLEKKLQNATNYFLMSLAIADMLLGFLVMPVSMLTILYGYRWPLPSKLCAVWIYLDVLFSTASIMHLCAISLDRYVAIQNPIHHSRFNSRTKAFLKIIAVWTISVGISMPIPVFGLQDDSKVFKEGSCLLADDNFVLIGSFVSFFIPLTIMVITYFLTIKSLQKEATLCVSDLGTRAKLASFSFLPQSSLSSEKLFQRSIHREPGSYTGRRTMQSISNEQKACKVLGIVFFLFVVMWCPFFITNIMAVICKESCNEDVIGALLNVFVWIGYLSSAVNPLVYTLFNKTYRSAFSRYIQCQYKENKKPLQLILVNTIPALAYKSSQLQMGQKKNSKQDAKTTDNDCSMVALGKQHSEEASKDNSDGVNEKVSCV
T4 sequence (Q923Y8 whole entry): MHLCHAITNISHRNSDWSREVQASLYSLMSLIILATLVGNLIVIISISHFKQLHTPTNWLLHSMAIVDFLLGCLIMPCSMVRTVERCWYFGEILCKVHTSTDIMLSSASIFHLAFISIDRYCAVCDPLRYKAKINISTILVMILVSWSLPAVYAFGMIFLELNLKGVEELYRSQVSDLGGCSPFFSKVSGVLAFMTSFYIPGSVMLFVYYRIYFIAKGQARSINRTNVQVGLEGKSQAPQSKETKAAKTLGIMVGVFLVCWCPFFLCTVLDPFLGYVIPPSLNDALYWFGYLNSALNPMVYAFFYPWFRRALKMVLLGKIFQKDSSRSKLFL

Structure (SMILES)	Ki (h5-HT1A receptor) [µM]	Selectivity 5-HT2A vs. 5-HT1A (h5-HT2A receptor)	Selectivity 5-HT2A vs. 5-HT2C (h5-HT2A receptor)	Ki (h5-HT2A receptor) [µM]	Higher affinity at the 5-HT2A receptor compared to mescaline (5) (h5-HT2A receptor; ratio of Ki values)	Higher affinity at the 5-HT2C receptor than mescaline (5) (h5-HT2C receptor)	Ki (h5-HT2C receptor) [µM]	Ki (mouse TAAR1) [µM]	Ki (hα1A adrenergic receptor) [µM]	Ki (hα2A adrenergic receptor) [µM]	Ki [1] [µM]	Ki (hNET) [µM]	Ki (hSERT) [µM]	Increase in 5-HT2A receptor affinity compared with TMA (6) (h5-HT2A receptor; ratio of Ki values) [fold]
COc1cc(CCN)cc(OC)c1OC(F)(F)F [compound 13, 4-trifluoromethoxy-3,5-dimethoxyphenethylamine]	2.2	7.9	1.0	0.28 ± 0.1	17- to 63 fold	19- to 34 fold	0.29 ± 0.1	1.9	3.2	0.45 ± 0.06	> 6.3	> 9.7	> 7.5	
COc1cc(CC(C)N)cc(OC)c1OC(F)F (stereo not shown) [compound 14, 4-difluoromethoxy-3,5-dimethoxyamphetamine]	> 5.6		2.6	1.4			3.7	1	> 8.7	2.6	> 6.3	> 9.7	> 7.5	
COc1cc(CCN)cc(OC)c1OCC(F)(F)F [compound 18, 3,5-dimethoxy-4-(2,2,2-trifluoroethoxy)phenethylamine]	> 5.6		0.9	1.3			1.2	> 4.2	> 8.7	2.3	> 6.3	> 9.7	> 7.5	
COc1cc(CCN)cc(OC)c1OC(CF)CF [compound 23, 3,5-dimethoxy-4-(1,3-difluoroprop-2-yloxy)phenethylamine]	> 5.6			> 12			> 10	> 4.2	> 8.7	2.7	> 6.3	> 9.7	> 7.5	
COc1cc(CCN)cc(OC)c1OCCCF [compound 25, 3,5-dimethoxy-4-(3-fluoropropoxy)-phenethylamine]	> 5.6	<1	0.6	9.3			5.3	> 4.2	> 8.7	2.9	> 6.3	> 9.7	> 7.5	
COc1cc(CCN)cc(OC)c1OCCC(F)(F)F [compound 26, 3,5-dimethoxy-4-(3,3,3-trifluoropropoxy)phenethylamine]	> 5.6	>1	1.1	5			5.3	> 4.2	> 8.7	2.3	> 6.3	> 9.7	> 7.5	
CCCOc1c(OC)cc(CC(C)N)cc1OC (stereo not shown) [compound 28, 3,5-dimethoxy-4-propyloxyamphetamine]	> 5.6		2.0	1			2	1.8	> 8.7	4.6	> 6.3	> 9.7	> 7.5	≥ 10
COc1cc(CCN)cc(OC)c1OC1CC1 [compound 29, 4-cyclopropyloxy-3,5-dimethoxyphenethylamine]	4	0.9	1.3	4.3			5.6	> 4.2	> 8.7	1.2	> 6.3	> 9.7	> 7.5	
C=C(C)COc1c(OC)cc(CCN)cc1OC [compound 32, 3,5-dimethoxy-4-methallyloxyphenethylamine]	5.1	9.3	0.9	0.55 ± 0.19	17- to 63 fold	19- to 34 fold	0.52 ± 0.15	3.9	> 8.7	1.5	> 6.3	> 9.7	> 7.5	
COc1cc(CCN)cc(OC)c1OCc1ccccc1 [compound 33, 4-benzyloxy-3,5-dimethoxyphenethylamine]	4.4	29	2.9	0.15 ± 0.01	17- to 63 fold	19- to 34 fold	0.44 ± 0.12	2.4	> 8.7	2.3	> 6.3	> 9.7	> 7.5	
